Assay results from the METLIN SMRT retention time set (Domingo-Almenara et al. 2019).

Experiment: gradient 5% acetonitrile 3 min, to 50% in 2 min, to 85% in 15 min, held 3 min, 100 µL/min
Details: column: Zorbax Extend-C18 2.1 x 50 mm; eluents: water / acetonitrile, 0.1% formic acid
How it was run: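 Over 3 months, pure standards in mixtures of ~100 molecules were run by HPLC coupled to a quadrupole time-of-flight mass spectrometer in positive and negative ionization mode. The column was a Zorbax Extend-C18 (2.1 × 50 mm, 1.8 μm) at 100 μL/min, eluted with water and acetonitrile each holding 0.1% formic acid, with 40 μL dead and 900 μL dwell volumes. Retention time was determined from adduct peaks chosen by software and checked manually.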

SMILES	RP-LC retention time [s]
Cc1nnc2nc(-c3ccccc3)nc(-c3ccccc3)n12	1130
COc1ccc(C2CC(=O)c3c(C)nc(N4CCN(c5ccccn5)CC4)nc3C2)cc1OC (centres undefined)	676
O=C(c1ccc(Br)cc1)N1CCN(C(=O)c2cc(-c3cccnc3)n[nH]2)CC1	626
O=C(Nc1nccs1)C1CCN(C(=O)c2ccc([N+](=O)[O-])o2)CC1	658
CCOc1ccc(C2Cn3nnc(-c4nc(-c5cccc(C)c5)no4)c3CO2)cc1 (centres undefined)	1270
CCCCn1cc(S(=O)(=O)NCc2ccc(F)cc2Cl)c2cccnc21	1030
Cc1ccc(N2CCC(NC(=O)Nc3ccccc3)C2=O)cc1 (centres undefined)	811
COc1cc(Cl)c(C)cc1NC(=O)CSc1ccc(N2CCCC(C(=O)NC3CC3)C2)nn1 (centres undefined)	774
COc1ccc(-c2nc(C3CC(=O)N(c4ccc(Cl)cc4)C3)no2)cc1OC (centres undefined)	944
COC(=O)c1c(NC2CCCCC2)c2cccc(Cl)c2[nH]c1=O	876
Cn1nc(C(=O)N2CCCC2)c2c1CCN(C(=O)CCC(=O)N1CCN(c3ccccc3)CC1)C2	701
C(=N/NC1=NCCN1)/c1c2ccccc2c(/C=N\NC2=NCCN2)c2ccccc12	590
COC(=O)C1=CN(c2cc(Cl)c(OC)cc2OC)c2ccc(F)cc2S1(=O)=O	914
CC1CCN(c2cc(-c3noc(C(=O)NC4CCCCCC4)n3)ccn2)CC1	1010
Cc1nc(C(C)C)nc2c1CCC(=O)N2Cc1cccnc1	519
O=C(Nc1nc(-c2ccccc2)cs1)Oc1ccccc1	1030
O=C(C1CCCN(c2ncccc2-c2noc(C3CCC3)n2)C1)N1CCCCC1 (centres undefined)	928
CC1=C(c2ccc(C)cc2)S(=O)(=O)N=C1N1CCC(NC(=O)c2cc(C)n(C)n2)CC1	769
Cc1noc([C@@H]2CN(S(=O)(=O)c3c(C)noc3C)C[C@H]2C(N)=O)n1	667
c1cc(-c2noc(C3CCCC3)n2)cc(N2CCOCC2)n1	872
CCc1cccc(Nc2c(C(=O)N3CCOCC3)cnc3nc(C)ccc23)c1	617
Cc1c(Cl)cccc1NC(=O)c1cnc(-c2ccccc2)nc1-c1ccncc1	954
COc1ccc(-n2ccn3cc(-c4cccc(Cl)c4)nc3c2=O)cc1	873

SMILES	RP-LC retention time [s]
NC(=O)C1CCN(c2ncnc3c2cnn3-c2ccc(Cl)cc2)CC1	732
COc1ccc(Br)cc1CNC(=O)Cn1cc(-c2nnc(C)o2)c2ccccc21	847
COC(=O)C1=C(NC(=O)c2ccc(N3C(=O)CCC3=O)cc2)CCS1	739
Cn1cc(C(CNC(=O)Nc2cccc(F)c2)c2cccnc2)c2ccccc21 (centres undefined)	660
O=S(=O)(c1cc(-c2nnc(C3CCCC3)o2)co1)N1CCC(N2CCCCC2)CC1	670
Nc1ncnc(NC2CCCC2)c1[N+](=O)[O-]	679
Cc1cc(C(=O)Nc2ccc(Cl)cc2)nc2ccnn12	1010
O=C(Nc1ccccc1F)N1CCc2nnc(C3CC3)n2CC1	592
C=CCc1c(C)nn(-c2nc(CC(=O)Nc3nc4ccccc4[nH]3)cs2)c1C	764
Cc1ccc(C)c(S(=O)(=O)N2CCC3(CC2)NCCN=C3NCc2ccc(F)cc2)c1	772
Cc1ccccc1Nc1c(-c2ccc(N3CCOCC3)cc2)nc2ccccn12	712
COc1ccc(NC(=O)Nc2cc(-c3cn4cccnc4n3)ccc2OC)cc1	651
O=C(Cn1nc2c3ccc(F)cc3ncn2c1=O)Nc1ccccc1Cl	725
CCc1nc2cc(-c3noc(-c4ccc5cc[nH]c5c4)n3)ccc2o1	1110
COc1ccc(-c2nc3cnccn3c2Nc2cccc(C(=O)O)c2)cc1	894
CC(C)OC(=O)Cn1nc(-c2nc(-c3ccc(Cl)cc3)no2)ccc1=O	1080
CCOC(=O)c1ccc2nc(C(F)(F)F)nc(NCCc3ccc(OC)cc3)c2c1	1240
O=C(NC1(c2nc(-c3ccccc3)no2)CCCCC1)c1ccccc1F	1100
COCCOC1CCN(S(=O)(=O)c2ccccc2C)CC1	810
COC(=O)c1ccc(NC(=O)CSc2nnc3c4cc(-c5ccccc5)nn4ccn23)cc1	1060
CN(Cc1ccccc1)C(=O)C1CC(=O)N(CCc2c[nH]c3ccc(Cl)cc23)C1 (centres undefined)	863
CCc1ccc(Oc2cc(N3CCC(C(=O)NCCC(C)C)CC3)ncn2)cc1	1040
COc1ccc(-c2nc3cnccn3c2Nc2ccc(C(=O)NCc3ccco3)cc2)cc1OC	682

SMILES	RP-LC retention time [s]
CC(C)NC(=O)c1ccccc1OCC1CCCN(C2CCC2)C1 (centres undefined)	606
COc1ccc(NC(=O)N2c3ccccc3CC2c2nc(C3CC3)no2)c(OC)c1 (centres undefined)	1030
CCc1cc(N2CCN(C(=O)c3ccc(N(C)C)cc3)CC2)nc2nncn12	586
COc1cccc(-n2cc(C(=O)OCC(=O)OC(C)C)c3ccccc3c2=O)c1	1060
CCOc1ccc(S(=O)(=O)Nc2ccc3c(c2)CCC(=O)N3CC(C)C)cc1	901
Cn1c(=O)oc2cc(-c3noc(-c4cccc(F)c4)n3)ccc21	1020
CCOC(=O)c1cccc(N2C=C(C(=O)N3CCCC3)S(=O)(=O)c3ccc(Cl)cc32)c1	901
O=C1NCC(=O)N2CC3(CCN(C(=O)C4CCCCC4)CC3)CC12 (centres undefined)	624
COCC(=O)NC1CCC12CCN(C(=O)C1CC1)CC2 (centres undefined)	619
COc1ccc(CNC(=O)C2c3ccccc3CC(=O)N2C)cc1 (centres undefined)	711
Cc1ccccc1CNC(=O)C1CCCN(S(=O)(=O)c2c[nH]c(C(=O)N3CCCCCC3)c2)C1 (centres undefined)	871
COc1ccccc1CNC(=O)C1CCCN(c2ccc(=O)n(-c3cccc(Cl)c3)n2)C1 (centres undefined)	883
CCOc1ccc(CNC(=O)c2cc(-c3ccncc3)cn2C)cc1	644
Cc1ccc(CNC(=O)c2cc3n(n2)CC(C)(C(=O)NCc2ccc(C)cc2)N(C)C3=O)cc1 (centres undefined)	823
NC(=O)C1CCN(C(=O)CCCc2nc3cccnc3n2Cc2ccc(F)cc2)CC1	602
Cc1ccccc1Oc1nccn2c(=O)n(CC(=O)Nc3cc(F)ccc3F)nc12	908
Cc1ccc2c(Nc3cc(F)ccc3C)c(-c3nc(C)no3)cnc2n1	784
Cc1nc(-c2ccc(C(=O)N3CCC(C)CC3)cc2)cs1	904
COc1ccc(Cl)cc1S(=O)(=O)N1CCC2(CC1)c1nccn1CCN2C	646
CC(C)c1noc(-c2cc(=O)n(CC(=O)Nc3cc(F)ccc3F)c3ccccc23)n1	1040
Cc1nn(-c2nc(-c3ccc(F)cc3)cs2)c(C)c1CC(=O)Nc1ccccc1F	1140
CC(C)C(=O)Nc1ccc(-n2cnc(C(=O)N3CCSCC3)c2)nc1	679
O=C1CCN(C(=O)c2ccsc2)CCCOCCN1	586

SMILES	RP-LC retention time [s]
O=C(CC1CCN(S(=O)(=O)c2ccccc2)CC1)N1CCN(c2ccccn2)CC1	625
Cc1noc2nc(CCC(=O)Nc3ccc(Cl)cc3F)nc(N3CCOCC3)c12	818
O=S(=O)(c1cccc(-c2cn3cc(Cl)ccc3n2)c1)N1CCCC1	805
CCN(CC)C(=O)c1ccc(C2=CC3(CCNCC3)Oc3cccc(O)c32)cc1	725
Cn1cccc1-c1cc2n(n1)CCCN2C(=O)CCC(=O)N1CCc2ccccc2C1	809
CCOc1ccccc1C(=O)NCC1CCN(C(=O)c2ccccc2F)CC1	756
CC1(C)CC(=O)N(CC(=O)Nc2c(F)c(F)c(F)c(F)c2F)c2ccccc2S1(=O)=O	860
Cn1nccc1C(=O)Nc1ccc(OCc2nnc(-c3ccccc3)o2)cc1	786
CC(=O)N1CCN(S(=O)(=O)c2cccc(C(=O)NCc3cccnc3)c2)CC1	533
Cn1c(=O)oc2cc(-c3noc(-c4ccc(F)cc4)n3)ccc21	831
O=C(Nc1ccccc1OC(F)F)c1ccc(S(=O)(=O)N2CCOCC2)cc1	841
O=C(NC1CCN(c2ccc(F)cc2)C1=O)c1ccc2c(c1)OCO2 (centres undefined)	764
O=C1CCC(CCNS(=O)(=O)c2ccc3c(c2)CCCC3)CCN1CC1CC1 (centres undefined)	938
c1ccc(-c2nnc(-c3nc(NCCc4cccs4)c4ccccc4n3)o2)cc1	1040
CCN1C(=O)c2cc(S(=O)(=O)Nc3ccc(F)c(C)c3)ccc2Oc2cccnc21	1060
Cc1oc(C2CCN(S(=O)(=O)c3ccc(C#N)cc3)CC2)nc1C(=O)N(C)C	762
Nc1cc(C2CCN(S(=O)(=O)c3ccccc3)CC2)no1	732
O=C(NCCN1CCc2ccccc2C1)C1CCCN(c2ncnc3c2nc2n3CCCCC2)C1 (centres undefined)	622
CC(C)c1ccc(NC(=O)Cn2cccc2-c2nnc(C3CC3)o2)cc1	961
CC(=O)Nc1ccc(NC(=O)CN2C(=O)C3CCCCN3C(=O)c3ccccc32)cc1 (centres undefined)	651
